Results from ChEMBL document CHEMBL1649420, “Identifying chelators for metalloprotein inhibitors using a fragment-based approach” (J Med Chem, 2011).

Legend:
Conditions in all cases: at 1 mM
[1] = molecular target: T1, Lethal factor (Bacillus anthracis) (UniProt P15917)
T1 sequence (whole entry): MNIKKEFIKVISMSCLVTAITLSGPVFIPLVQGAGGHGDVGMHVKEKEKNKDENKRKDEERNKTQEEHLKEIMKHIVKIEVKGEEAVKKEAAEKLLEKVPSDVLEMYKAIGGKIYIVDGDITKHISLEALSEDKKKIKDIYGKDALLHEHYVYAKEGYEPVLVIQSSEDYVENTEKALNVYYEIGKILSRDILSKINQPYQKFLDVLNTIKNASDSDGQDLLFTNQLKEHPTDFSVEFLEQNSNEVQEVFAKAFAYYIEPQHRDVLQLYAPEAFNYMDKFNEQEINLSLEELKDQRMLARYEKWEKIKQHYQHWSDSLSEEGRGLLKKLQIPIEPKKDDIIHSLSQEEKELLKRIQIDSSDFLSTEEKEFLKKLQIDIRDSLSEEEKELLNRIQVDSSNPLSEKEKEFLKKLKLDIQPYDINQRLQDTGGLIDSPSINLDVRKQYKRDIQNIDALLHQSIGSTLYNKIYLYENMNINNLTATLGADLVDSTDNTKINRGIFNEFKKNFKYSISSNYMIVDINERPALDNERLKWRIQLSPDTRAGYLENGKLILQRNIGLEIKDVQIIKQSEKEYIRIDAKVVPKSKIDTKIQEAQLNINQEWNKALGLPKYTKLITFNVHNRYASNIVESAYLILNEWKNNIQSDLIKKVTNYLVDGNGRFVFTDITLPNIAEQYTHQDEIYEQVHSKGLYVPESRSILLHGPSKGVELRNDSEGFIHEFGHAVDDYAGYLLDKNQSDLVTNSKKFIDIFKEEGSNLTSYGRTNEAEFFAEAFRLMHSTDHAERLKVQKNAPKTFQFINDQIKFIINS

[2] = molecular target: Matrix metalloproteinase-9 (Homo sapiens) (UniProt P14780);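 further: recombinant human MMP9, activity read after 30 min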
Matrix metalloproteinase-9 (Homo sapiens), sequence (P14780 whole entry): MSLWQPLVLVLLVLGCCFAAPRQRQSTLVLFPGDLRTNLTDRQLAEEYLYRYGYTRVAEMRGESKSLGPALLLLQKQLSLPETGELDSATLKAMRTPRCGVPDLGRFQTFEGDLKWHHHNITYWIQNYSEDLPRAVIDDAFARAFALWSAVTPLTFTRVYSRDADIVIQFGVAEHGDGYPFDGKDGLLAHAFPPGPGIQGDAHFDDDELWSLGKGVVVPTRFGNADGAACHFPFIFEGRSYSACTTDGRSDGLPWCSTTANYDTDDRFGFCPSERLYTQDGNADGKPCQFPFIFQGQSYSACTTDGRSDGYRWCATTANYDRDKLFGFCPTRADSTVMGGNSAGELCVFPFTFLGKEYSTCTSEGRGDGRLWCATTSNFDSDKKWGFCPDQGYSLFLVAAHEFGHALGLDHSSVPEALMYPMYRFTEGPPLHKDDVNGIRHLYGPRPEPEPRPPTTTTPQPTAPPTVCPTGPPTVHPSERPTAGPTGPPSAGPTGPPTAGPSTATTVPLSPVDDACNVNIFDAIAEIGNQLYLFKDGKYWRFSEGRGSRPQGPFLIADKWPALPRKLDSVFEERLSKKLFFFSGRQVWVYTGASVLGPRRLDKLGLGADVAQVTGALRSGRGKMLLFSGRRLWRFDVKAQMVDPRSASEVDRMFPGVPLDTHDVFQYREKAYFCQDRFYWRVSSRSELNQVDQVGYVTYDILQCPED

[3] = molecular target: Neutrophil collagenase (Homo sapiens) (UniProt P22894);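 further: recombinant human MMP8 enzyme, percent inhibition read after 30 min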
Neutrophil collagenase (Homo sapiens), sequence (P22894 101-467 limits assumed): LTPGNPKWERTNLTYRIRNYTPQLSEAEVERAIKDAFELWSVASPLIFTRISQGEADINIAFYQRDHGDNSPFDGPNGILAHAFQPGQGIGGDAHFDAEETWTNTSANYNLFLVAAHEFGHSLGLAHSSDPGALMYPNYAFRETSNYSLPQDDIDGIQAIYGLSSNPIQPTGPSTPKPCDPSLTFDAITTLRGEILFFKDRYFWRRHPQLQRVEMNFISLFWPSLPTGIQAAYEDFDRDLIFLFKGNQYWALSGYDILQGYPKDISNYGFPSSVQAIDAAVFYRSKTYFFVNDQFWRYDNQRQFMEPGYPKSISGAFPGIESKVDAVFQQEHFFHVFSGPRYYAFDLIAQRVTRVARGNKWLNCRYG

[4] = molecular target: T2, Interstitial collagenase (Homo sapiens) (UniProt P03956);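 further: recombinant human enzyme, with inhibition measured after 30 min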
T2 sequence (whole entry): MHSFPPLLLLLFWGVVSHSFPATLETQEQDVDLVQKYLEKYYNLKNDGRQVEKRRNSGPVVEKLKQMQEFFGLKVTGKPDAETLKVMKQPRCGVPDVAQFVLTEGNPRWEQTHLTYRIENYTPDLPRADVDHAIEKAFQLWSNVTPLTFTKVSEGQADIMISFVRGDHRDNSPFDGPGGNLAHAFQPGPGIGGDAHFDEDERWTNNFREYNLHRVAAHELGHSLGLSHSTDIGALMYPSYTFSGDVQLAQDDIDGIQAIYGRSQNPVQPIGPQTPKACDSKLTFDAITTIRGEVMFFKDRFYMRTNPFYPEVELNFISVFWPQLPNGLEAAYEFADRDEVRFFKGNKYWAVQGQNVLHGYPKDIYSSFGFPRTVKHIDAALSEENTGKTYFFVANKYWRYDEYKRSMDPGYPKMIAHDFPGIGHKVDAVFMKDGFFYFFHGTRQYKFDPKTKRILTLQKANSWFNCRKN

[5] = molecular target: T3, Nitric oxide synthase, inducible (Mus musculus) (UniProt P29477);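 further: recombinant enzyme, activity read out colorimetrically after 40 min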
T3 sequence (whole entry): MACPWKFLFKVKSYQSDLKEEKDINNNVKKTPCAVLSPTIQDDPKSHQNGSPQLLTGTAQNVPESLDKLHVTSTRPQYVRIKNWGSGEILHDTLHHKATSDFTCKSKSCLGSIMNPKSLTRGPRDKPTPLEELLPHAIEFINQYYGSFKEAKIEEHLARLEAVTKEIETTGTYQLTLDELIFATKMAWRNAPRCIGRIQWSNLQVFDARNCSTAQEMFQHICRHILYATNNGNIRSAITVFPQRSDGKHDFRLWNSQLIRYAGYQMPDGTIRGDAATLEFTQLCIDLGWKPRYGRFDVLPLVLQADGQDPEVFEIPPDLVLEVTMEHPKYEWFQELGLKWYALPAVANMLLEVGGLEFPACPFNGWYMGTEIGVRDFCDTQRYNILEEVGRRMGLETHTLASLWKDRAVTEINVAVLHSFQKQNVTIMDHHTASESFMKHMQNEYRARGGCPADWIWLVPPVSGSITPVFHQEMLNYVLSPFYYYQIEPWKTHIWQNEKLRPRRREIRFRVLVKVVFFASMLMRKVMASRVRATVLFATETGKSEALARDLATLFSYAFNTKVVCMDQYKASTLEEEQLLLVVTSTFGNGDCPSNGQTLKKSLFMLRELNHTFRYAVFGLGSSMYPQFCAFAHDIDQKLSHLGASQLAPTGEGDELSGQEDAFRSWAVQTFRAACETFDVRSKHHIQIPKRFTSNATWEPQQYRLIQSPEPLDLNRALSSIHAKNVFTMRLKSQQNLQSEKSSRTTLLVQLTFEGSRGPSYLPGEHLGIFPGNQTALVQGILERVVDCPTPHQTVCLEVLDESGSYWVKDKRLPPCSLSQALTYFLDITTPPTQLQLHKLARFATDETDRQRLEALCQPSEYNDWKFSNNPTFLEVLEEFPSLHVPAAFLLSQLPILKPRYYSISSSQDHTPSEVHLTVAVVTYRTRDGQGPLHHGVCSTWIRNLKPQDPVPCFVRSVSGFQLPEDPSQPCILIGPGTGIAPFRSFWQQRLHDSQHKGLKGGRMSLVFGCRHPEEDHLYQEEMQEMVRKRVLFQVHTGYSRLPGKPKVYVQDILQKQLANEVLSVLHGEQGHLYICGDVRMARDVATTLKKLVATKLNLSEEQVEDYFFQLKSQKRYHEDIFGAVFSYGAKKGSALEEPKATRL

[6] = molecular target: T4, Tyrosinase (Agaricus bisporus) (UniProt O42713);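 further: inhibition measured at 10 min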
T4 sequence (whole entry): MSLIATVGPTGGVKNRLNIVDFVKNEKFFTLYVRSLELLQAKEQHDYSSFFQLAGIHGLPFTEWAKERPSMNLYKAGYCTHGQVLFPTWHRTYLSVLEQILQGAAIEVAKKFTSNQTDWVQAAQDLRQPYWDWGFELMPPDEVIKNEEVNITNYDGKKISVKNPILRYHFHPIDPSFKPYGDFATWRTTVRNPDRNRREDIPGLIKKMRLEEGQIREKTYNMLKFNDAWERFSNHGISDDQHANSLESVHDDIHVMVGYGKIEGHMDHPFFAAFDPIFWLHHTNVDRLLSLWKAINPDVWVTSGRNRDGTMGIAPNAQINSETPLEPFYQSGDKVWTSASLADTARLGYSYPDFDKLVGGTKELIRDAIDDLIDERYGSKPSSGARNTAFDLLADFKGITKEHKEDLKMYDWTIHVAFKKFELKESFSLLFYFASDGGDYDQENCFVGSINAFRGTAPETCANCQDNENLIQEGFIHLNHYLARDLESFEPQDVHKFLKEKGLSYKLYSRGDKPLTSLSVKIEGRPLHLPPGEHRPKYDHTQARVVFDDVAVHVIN

Row | Structure (SMILES) | inhibition [1] | inhibition [2] | inhibition [3] | inhibition [4] | inhibition [5] | inhibition [6]
1 | O=c1ccocc1O | 29% | 45% | 43% | 48% | 22% | 38%
2 | O=C(O)c1ncccc1O | 43% | 19% | 56% | 55% | 46% | 87%
3 | O=C(O)c1cccc(Br)n1 | 75% | 4% | 1% | 11% | 17% | 90%
4 | CC(=O)C1CCCC1=O (stereo not drawn) | 6% | 25% | 37% | 38% | 29% | 83%
5 | Cc1cccc(C(=O)O)c1O | 8% | 14% | 18% | 10% | 13% | 96%
6 | O=c1occcc1O | 21% | 70% | 68% | 74% | 42% | 77%
7 | O=C(O)c1cccc[n+]1[O-] | 40% | 8% | 21% | 10% | -1% | 88%
8 | O=C(O)c1ccccn1 | 49% | 0% | 30% | 3% | 6% | 74%
